Measured values: patent US20180071280A1, “MODULATORS OF CELL DEATH PROCESSES” (URIFER LTD., priority 2015, published 2018)
Entries after “also recorded” stand apart in the source; their conditions may differ. Counter-ions that a name gives are not always drawn.

Key:
[1] = system: Electron Transport Chain (ETC) complex I; test: ETC Complex I activity assay in SW620 cells; assay type: cell-based, human
Protocol: SW620 cells were treated with 0260 for 4-22 h and the Complex I activity was determined for each period on incubation using the Complex I Enzyme Activity Microplate Assay Kit (Colorimetric) according to the manufacturer's instructions (ab109721).

[2] = system: CC cells; test: Mitochondrial membrane potential (TMRE) in CC cells; assay type: cell-based, human; conditions: malignant cells
Protocol: For microscopic and ELISA based analyses of cells MMP, Tetra-Methyl-Rhodamine-Ethyl ester (TMRE) incorporation assay was carried out according to the manufacturer's instructions (Abcam, USA).

[3] = system: HKII; test: Glycolysis enzyme levels in CC cells (WB, ICC); assay type: cell-based, human
Protocol: WB analyses were carried out as previously described before. In brief, cells were lysed in RIPA buffer mixed with protease inhibitors and separated on SDS-PAGE gel, transferred to PVDF membrane treated with 5% skim milk to exclude non-specific background and incubated with a primary antibody over-night. The membrane was incubated for 1 h with a secondary antibody conjugated to Horseradish Peroxidase (HRP). The protein-antibody complex was visualized using the SuperSignal West Pico Chemiluminescent Substrate (Thermo scientific, USA).
Cells were fixed with 4% paraformaldehyde (30 min) and incubated with Permeabilization Solution containing 0.1% Triton X-100 (Sigma-Aldrich, Israel) in PBS at room temperature for 1 h. Nonspecific binding was blocked with PBS containing 10% fetal bovine serum for 1 h at room temperature. Cells were incubated with specific antibodies diluted 1:100 overnight at 4° C. […] Bound primary antibodies were detected by Alexa Fluor® 488 goat anti-mouse IgG antibody or Alexa Fluor® 594 goat anti-rabbit IgG antibody (Molecular Probes, Invitrogen, U.K.). […] Nonspecific staining, as determined by binding to the secondary antibody only, was negligible. The immunostained slides were examined under the fluorescence microscope AxioimagerZ1 (Zeiss, Germany) or confocal fluorescence microscope (Olympus-FV1000).

[4] = system: normal human fibroblasts (Hfb); test: MultiTox-Fluor cytotoxicity assay in normal human fibroblasts; assay type: cell-based
Protocol: Cell lines (HCT116, ht29, Rko, Hep3B, SW48, SW620, MDA-MB-231, PANC-1, su.86.86, Hfb) were obtained from the American Type Culture Collection (ATCC). Cell type authentication was carried out by microscope and DNA profiles using short tandem repeat analysis. Cells were grown in Minimum Essential Medium (MEM) containing 10% heat-inactivated Fetal Bovine Serum (FBS) or in Dulbecco's Modified Eagle's Medium (DMEM) containing 10% FBS, where specified, at 37° C. with 5% CO2. In general, the in-vitro experiments were carried out with 2. μM 0260 added into the growth medium. Dose response experiments included increasing 0260 concentrations. Cell death levels were determined using the MultiTox-Fluor Multiplex Cytotoxicity Assay (G9201, Promega, USA). In brief, 10,000 cells were seeded in black bottom 96 wells plate and were allowed to attach to the plate bottom for 16 h before the administration of various 0260 concentration in each well. Cell death levels were determined according to the manufacturer's protocol.
Cells death level was determined using the MultiTox-Fluor Multiplex Cytotoxicity Assay (G9201, Promega, USA) according to the manufacturer's protocol.

[5] = target: CSF1R (Colony stimulating factor 1 receptor-FMS) (Homo sapiens, UniProt P07333); test: Kinase panel assay, CSF1R; assay type: biochemical; conditions: above threshold
CSF1R (Colony stimulating factor 1 receptor-FMS), sequence (P07333 20-972): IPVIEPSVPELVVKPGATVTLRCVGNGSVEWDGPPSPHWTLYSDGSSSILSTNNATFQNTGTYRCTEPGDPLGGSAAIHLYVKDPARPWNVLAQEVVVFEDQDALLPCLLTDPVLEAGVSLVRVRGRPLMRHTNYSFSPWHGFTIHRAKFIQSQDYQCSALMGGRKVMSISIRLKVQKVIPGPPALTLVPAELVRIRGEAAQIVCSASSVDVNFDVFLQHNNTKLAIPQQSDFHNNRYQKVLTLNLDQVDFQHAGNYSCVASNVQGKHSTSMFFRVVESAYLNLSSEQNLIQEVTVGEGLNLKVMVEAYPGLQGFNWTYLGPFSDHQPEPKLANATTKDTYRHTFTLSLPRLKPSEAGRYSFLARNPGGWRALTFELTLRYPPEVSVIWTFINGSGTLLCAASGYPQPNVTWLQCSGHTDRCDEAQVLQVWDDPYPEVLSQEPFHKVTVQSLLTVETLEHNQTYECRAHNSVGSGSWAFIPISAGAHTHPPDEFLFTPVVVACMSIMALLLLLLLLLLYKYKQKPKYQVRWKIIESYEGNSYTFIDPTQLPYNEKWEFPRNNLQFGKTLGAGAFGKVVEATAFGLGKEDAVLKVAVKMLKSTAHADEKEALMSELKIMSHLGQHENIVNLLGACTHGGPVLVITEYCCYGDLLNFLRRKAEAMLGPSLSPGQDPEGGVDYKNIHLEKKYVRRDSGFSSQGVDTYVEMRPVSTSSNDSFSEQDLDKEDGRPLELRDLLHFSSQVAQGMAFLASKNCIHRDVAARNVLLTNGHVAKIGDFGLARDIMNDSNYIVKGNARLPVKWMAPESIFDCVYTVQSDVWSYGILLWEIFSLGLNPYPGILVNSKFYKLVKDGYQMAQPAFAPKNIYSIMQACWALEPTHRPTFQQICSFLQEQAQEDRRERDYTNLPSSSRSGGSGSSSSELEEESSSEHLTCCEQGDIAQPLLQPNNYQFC
Protocol: (§1) Kinase panel assays were performed using the FRET-based Z′-LYTE, Lantha Screen and Adapta enzymatic kinase assay systems (Life Technologies, Carlsbad, Calif.), which were carried out using the SelectScreen Kinase Profiling Service (Life Technologies). The standard reaction contained 2 μM peptide substrate, ATP at the optimal assay concentration, 50 mM HEPES (pH 7.5), 0.01% Brij-35, 10 mM MgCl2, 1 mM EGTA, and the tested kinase. Each kinase was checked for its activity in duplicate data points (n=2) and was assayed following the detailed procedures outlined in the SelectScreen service. Percent inhibition or ATP displacement (For Lantha screen) represent a ratio of phosphorylated/ATP bound product formed in the presence of the compound compared with phosphorylated/ATP bound product formed in reactions containing 1% DMSO.
(§2) Kinome technique was used for monitoring phosphorylation events and phosphorylation targets of 0260-Fer interaction, using peptide arrays for human targets and phosphorylation-specific antibodies. Construction of peptide arrays relied on information from phosphorylation databases. The following proteins were determined as significant above the threshold of 40% kinase activity inhibition or ATP displacement to the Kinase domain site.

[6] = system: CC cells; test: Glycolysis rate (secreted lactate) in CC cells; assay type: cell-based, human; conditions: 12 h
Protocol: Cells were grown in MEM containing 1 gr/lit glucose or in DMEM with 4.5 gr/lit glucose. Secreted lactate levels were determined using Lactate Colorimetric Assay Kit II according to the manufacturer's protocol (Biovision, USA).

[7] = target: MINK1 (Homo sapiens, UniProt Q8N4C8); test: Kinase panel assay, MINK1; assay type: biochemical; conditions: above threshold
MINK1, sequence (Q8N4C8 1-320 limits assumed): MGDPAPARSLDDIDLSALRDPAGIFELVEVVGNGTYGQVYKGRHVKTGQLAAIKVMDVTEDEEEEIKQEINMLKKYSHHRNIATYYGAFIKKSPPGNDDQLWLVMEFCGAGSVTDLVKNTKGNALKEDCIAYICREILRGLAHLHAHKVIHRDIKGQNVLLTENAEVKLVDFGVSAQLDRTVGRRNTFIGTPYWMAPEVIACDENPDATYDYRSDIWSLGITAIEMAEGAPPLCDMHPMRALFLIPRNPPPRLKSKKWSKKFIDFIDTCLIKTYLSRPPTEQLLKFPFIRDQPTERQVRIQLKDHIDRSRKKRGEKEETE
Protocol: as §1, §2

[8] = target: MAPK8 (JNK1) (Homo sapiens, UniProt P45983); test: Kinase panel assay, MAPK8; assay type: biochemical; conditions: above threshold
MAPK8 (JNK1), sequence (P45983 whole entry): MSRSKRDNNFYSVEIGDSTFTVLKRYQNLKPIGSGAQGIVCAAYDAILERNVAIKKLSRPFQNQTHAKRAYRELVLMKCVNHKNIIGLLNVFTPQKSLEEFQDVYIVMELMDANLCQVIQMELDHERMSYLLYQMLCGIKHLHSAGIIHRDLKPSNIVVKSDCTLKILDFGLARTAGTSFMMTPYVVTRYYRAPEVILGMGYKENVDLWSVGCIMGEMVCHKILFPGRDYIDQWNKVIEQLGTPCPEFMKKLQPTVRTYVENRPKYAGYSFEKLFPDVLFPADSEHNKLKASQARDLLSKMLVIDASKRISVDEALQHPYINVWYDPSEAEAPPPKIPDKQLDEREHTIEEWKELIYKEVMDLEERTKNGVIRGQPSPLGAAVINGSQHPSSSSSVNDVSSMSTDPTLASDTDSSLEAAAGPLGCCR
Protocol: as §1, §2

[9] = target: FLT3 (FMS-like tyrosine kinase 3) (Homo sapiens, UniProt P36888); test: Kinase panel assay, FLT3; assay type: biochemical; conditions: above threshold
FLT3 (FMS-like tyrosine kinase 3), sequence (P36888 27-993): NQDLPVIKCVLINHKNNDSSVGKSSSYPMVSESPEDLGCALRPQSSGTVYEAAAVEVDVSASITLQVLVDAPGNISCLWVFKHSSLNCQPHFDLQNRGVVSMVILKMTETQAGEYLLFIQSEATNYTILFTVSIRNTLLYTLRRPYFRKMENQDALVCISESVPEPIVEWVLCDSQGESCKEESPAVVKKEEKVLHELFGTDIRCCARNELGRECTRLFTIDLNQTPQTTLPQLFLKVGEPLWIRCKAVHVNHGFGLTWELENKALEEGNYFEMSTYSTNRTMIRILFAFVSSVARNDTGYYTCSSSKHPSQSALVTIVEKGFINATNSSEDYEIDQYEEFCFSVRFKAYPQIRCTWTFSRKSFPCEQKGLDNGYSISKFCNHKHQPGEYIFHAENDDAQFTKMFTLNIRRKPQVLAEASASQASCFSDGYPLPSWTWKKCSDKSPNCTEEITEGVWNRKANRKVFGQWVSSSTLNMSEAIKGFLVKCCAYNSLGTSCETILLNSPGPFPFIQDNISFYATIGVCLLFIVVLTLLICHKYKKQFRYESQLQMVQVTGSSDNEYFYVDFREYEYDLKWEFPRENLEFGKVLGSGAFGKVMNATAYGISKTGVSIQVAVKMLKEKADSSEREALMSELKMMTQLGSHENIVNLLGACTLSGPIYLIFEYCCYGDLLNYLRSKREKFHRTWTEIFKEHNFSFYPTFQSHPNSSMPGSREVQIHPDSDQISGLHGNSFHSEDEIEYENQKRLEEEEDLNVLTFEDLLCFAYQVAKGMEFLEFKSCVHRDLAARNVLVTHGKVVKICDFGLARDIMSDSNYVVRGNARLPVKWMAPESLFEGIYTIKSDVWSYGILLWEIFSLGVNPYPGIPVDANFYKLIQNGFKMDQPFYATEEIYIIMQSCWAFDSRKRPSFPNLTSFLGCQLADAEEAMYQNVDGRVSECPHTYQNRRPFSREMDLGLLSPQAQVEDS
Protocol: as §1, §2

[10] = Pharmacokinetic study in mice; assay type: in vivo; conditions: IP
Protocol: The investigation of PK properties of 0260 was carried out using 30 ICR/CD-1 mice. Intraperitoneal (IP) administration was used, and the solution was administered as 10 ml per 1 kg of animal body weight. At 5, 15, 30, 60, 120, and 240 min after administration (5 mice per each time point) mice were decapitated and blood samples were taken in EDTA-containing tubes. Plasma was prepared from the collected blood by centrifugation and then forwarded for LC-MS/MS analysis. A high sensitivity analytical method was developed for detection of 0260. Analysis was performed in the Agilent 1100 HPLC system including degasser, the binary pump, autosampler, and absorption detector with variable wavelength ranging between 190-600 nm. The HPLC system was coupled with the tandem mass spectrometer API 2000 (Applied Biosystems). The TurboIonSpray ion source was used in the positive ion mode. Data acquisition was performed with Analyst 1.3.1 software.

## CC(C)c1ccc(-c2cn3nc(N4CCC(CN5CCN(C)CC5)CC4)sc3n2)cc1 [compound 0260, tartarate salt of 6-(4-isopropyl-phenyl)-2-{4-[(4-methyl-piperazin-1-yl)methyl]piperidin-1-yl}-imidazo [2,1-b][1,3,4]thiadiazole]
[1]; SW620, 4 h post treatment
  Complex I activity: inhibited
[1]; SW620, 16 h
  Complex I activity (remaining): around 55%
[1]; SW620, 22 hours
  Complex I activity (remaining): ~35%
[2]
  Mitochondrial Membrane Potential (MMP): depolarization
[3]
  HKII level: down-regulation of HKII
[4]; 24 h and 48 h, same conditions as SW620
  cell death / cytotoxic effect in normal fibroblasts: no death was seen; also recorded: Almost no cytotoxic effect
[4]; Hfb 72 h vs SW620
  sensitivity of normal cells lower than SW620: 50 fold
[4]; Homo sapiens, Fibroblast, Hfb, 0-20 μM, 72 h
  EC50: 20 µM
[5]
  kinase activity inhibition or ATP displacement: > 40%
[6]; high glucose concentration
  additional acceleration of glycolytic rate: 30%
[6]; high glucose concentration, total
  elevation in the glycolytic rate: 65%
[6]; low glucose
  acceleration of glycolytic rate: 35%
[7]
  kinase activity inhibition or ATP displacement: > 40%
[8]
  kinase activity inhibition or ATP displacement: > 40%
[9]
  kinase activity inhibition or ATP displacement: > 40%
[10]; ICR/CD-1, mouse, plasma, read-out: T1/2 in the blood
  half-life: 175 min
[10]
  volume of distribution: 4244 mL/kg
